Results reported in BigSolDB 2.1.

SMILES: O=P(O)(c1ccccc1)c1ccccc1
- solubility (mole fraction) (in 2-ethoxyethanol, 288.15 K): 0.00619
- solubility (mole fraction) (in 2-ethoxyethanol, 293.18 K): 0.00716
- solubility (mole fraction) (in 2-ethoxyethanol, 298.17 K): 0.0081
- solubility (mole fraction) (in 2-ethoxyethanol, 303.04 K): 0.00924
- solubility (mole fraction) (in 2-ethoxyethanol, 308.11 K): 0.0106
- solubility (mole fraction) (in 2-ethoxyethanol, 313.15 K): 0.0118
- solubility (mole fraction) (in 2-ethoxyethanol, 318.2 K): 0.0135
- solubility (mole fraction) (in 2-ethoxyethanol, 323.16 K): 0.0151
- solubility (mole fraction) (in 2-ethoxyethanol, 328.2 K): 0.0172
- solubility (mole fraction) (in 2-ethoxyethanol, 332.96 K): 0.0196
- solubility (mole fraction) (in 2-ethoxyethanol, 338.03 K): 0.0223
- solubility (mole fraction) (in 2-ethoxyethanol, 343.24 K): 0.0252
- solubility (mole fraction) (in 2-ethoxyethanol, 348.24 K): 0.0285
- solubility (mole fraction) (in 2-ethoxyethanol, 353.25 K): 0.0321
- solubility (mole fraction) (in 2-ethoxyethanol, 358.29 K): 0.036
- solubility (mole fraction) (in 2-ethoxyethanol, 363.1 K): 0.0401
- solubility (mole fraction) (in acetic acid, 293.23 K): 0.00426
- solubility (mole fraction) (in acetic acid, 303.15 K): 0.00604
- solubility (mole fraction) (in acetic acid, 313.03 K): 0.00827
- solubility (mole fraction) (in acetic acid, 323.15 K): 0.0112
- solubility (mole fraction) (in acetic acid, 333.21 K): 0.0151
- solubility (mole fraction) (in acetic acid, 343.04 K): 0.0209
- solubility (mole fraction) (in acetone, 293.25 K): 0.00051
- solubility (mole fraction) (in acetone, 298.18 K): 0.00068
- solubility (mole fraction) (in acetone, 303.12 K): 0.00091
- solubility (mole fraction) (in acetone, 308.23 K): 0.0012
- solubility (mole fraction) (in acetone, 313.19 K): 0.00156
- solubility (mole fraction) (in acetone, 318.21 K): 0.00203
- solubility (mole fraction) (in acetone, 323.24 K): 0.00244
- solubility (mole fraction) (in benzene, 293.15 K): 0.0007
- solubility (mole fraction) (in benzene, 303.19 K): 0.00112
- solubility (mole fraction) (in benzene, 313.17 K): 0.00183
- solubility (mole fraction) (in benzene, 322.95 K): 0.00291
- solubility (mole fraction) (in benzene, 333.21 K): 0.00459
- solubility (mole fraction) (in benzene, 343.12 K): 0.00706
- solubility (mole fraction) (in ethanol, 283.15 K): 0.00575
- solubility (mole fraction) (in ethanol, 288.15 K): 0.00671
- solubility (mole fraction) (in ethanol, 293.1 K): 0.00774
- solubility (mole fraction) (in ethanol, 298.07 K): 0.00889
- solubility (mole fraction) (in ethanol, 303.07 K): 0.0102
- solubility (mole fraction) (in ethanol, 308.15 K): 0.0117
- solubility (mole fraction) (in ethanol, 313.16 K): 0.0134
- solubility (mole fraction) (in ethanol, 318.16 K): 0.0152
- solubility (mole fraction) (in ethanol, 322.84 K): 0.0173
- solubility (mole fraction) (in ethanol, 327.94 K): 0.0198
- solubility (mole fraction) (in ethanol, 333.1 K): 0.0231
- solubility (mole fraction) (in ethanol, 337.97 K): 0.0264
- solubility (mole fraction) (in ethanol, 342.9 K): 0.0302
- solubility (mole fraction) (in ethyl acetate, 293.06 K): 0.00052
- solubility (mole fraction) (in ethyl acetate, 298.15 K): 0.0006
- solubility (mole fraction) (in ethyl acetate, 303.15 K): 0.00075
- solubility (mole fraction) (in ethyl acetate, 308.17 K): 0.00098
- solubility (mole fraction) (in ethyl acetate, 313.23 K): 0.00121
- solubility (mole fraction) (in ethyl acetate, 318.04 K): 0.00144
- solubility (mole fraction) (in ethyl acetate, 323.1 K): 0.00176
- solubility (mole fraction) (in ethyl acetate, 328.13 K): 0.00208
- solubility (mole fraction) (in ethyl acetate, 333.25 K): 0.00247
- solubility (mole fraction) (in ethyl acetate, 337.95 K): 0.00318
- solubility (mole fraction) (in isopropanol, 288.15 K): 0.00426
- solubility (mole fraction) (in isopropanol, 293.15 K): 0.00503
- solubility (mole fraction) (in isopropanol, 297.98 K): 0.00594
- solubility (mole fraction) (in isopropanol, 303.09 K): 0.00696
- solubility (mole fraction) (in isopropanol, 308.05 K): 0.00803
- solubility (mole fraction) (in isopropanol, 313.15 K): 0.00931
- solubility (mole fraction) (in isopropanol, 318.06 K): 0.0107
- solubility (mole fraction) (in isopropanol, 323.08 K): 0.0123
- solubility (mole fraction) (in isopropanol, 328.12 K): 0.0144
- solubility (mole fraction) (in isopropanol, 332.97 K): 0.0165
- solubility (mole fraction) (in isopropanol, 338.17 K): 0.0189
- solubility (mole fraction) (in isopropanol, 342.94 K): 0.0223
- solubility (mole fraction) (in isopropanol, 347.8 K): 0.0257
- solubility (mole fraction) (in toluene, 293.15 K): 0.00049
- solubility (mole fraction) (in toluene, 303.16 K): 0.00074
- solubility (mole fraction) (in toluene, 313.18 K): 0.00107
- solubility (mole fraction) (in toluene, 323.08 K): 0.00157
- solubility (mole fraction) (in toluene, 333.17 K): 0.00232
- solubility (mole fraction) (in toluene, 343.25 K): 0.00326
- solubility (mole fraction) (in toluene, 352.95 K): 0.00462
- solubility (mole fraction) (in toluene, 362.65 K): 0.00651
- solubility (mole fraction) (in water, 303.14 K): 5e-05
- solubility (mole fraction) (in water, 313.17 K): 8e-05
- solubility (mole fraction) (in water, 323.13 K): 0.00011
- solubility (mole fraction) (in water, 333 K): 0.00014
- solubility (mole fraction) (in water, 343.05 K): 0.00018
- solubility (mole fraction) (in water, 353.05 K): 0.00023
